# Experimental data from patent US20120142750A1, “INDOLEAMINE 2,3-DIOXYGENASE PATHWAYS IN THE GENERATION OF REGULATORY T CELLS” (Regents of the University of Minnesota, priority 2005, published 2012).
# Strand notation (5' to 3'): a small letter for the sugar, then the base; units joined by * are phosphorothioate-linked, units joined directly phosphodiester-linked; [ ] holds rarer units or linkages, { } end groups; capitals alone tell only the bases. d = 2'-deoxy (DNA)
# What was measured:
# [1] = tested on: experimental autoimmune encephalomyelitis; conditions: mouse model; cited from earlier work
# [2] = tested on: auto-reactive T cells; conditions: cited from earlier work
# [3] = tested on: Lewis Lung carcinoma; conditions: Lewis Lung carcinoma model; cited from earlier work
# [4] = tested on: P815 transfected with IDO; conditions: concomitant administration; cited from earlier work
# [5] = tested on: OT-I and A1 T cells; assay: Bystander-suppression assays (TDLN IDO+ DCs, OT-I, Tregs, A1 bystander cells); assay type: cell-based, mouse
# Description: Isolation of tumor-draining lymph node DCs.
# Bystander-suppression assays. All experiments were repeated 3-5 times unless otherwise indicated. OT-I cells were sorted as CD8^+ spleen cells, gated on the CD11c^NEGB220^NEG fraction to exclude DCs. Sorted DCs from TDLN were mixed with 1×10^5 responder cells at a 1:40 ratio in V-bottom culture wells (Nunc). […] Sorted CD4^+ A1 cells (1×10^5) and CD11c^+ DCs (1:40 ratio) from normal CBA spleen were added as bystander cells. […] For transwell assays, 96-Multiwell insert plates (1 uM pore size, BD Falcon) were used and the number of cells in all groups was doubled.
# Feeder layer. Plasmacytoid DCs and Tregs have been reported to require survival factors to maintain viability and function in vitro.
# Readouts for T cell proliferation. […] After 72 hours, assays were stained for CD4 vs CD8 and CFSE fluorescence analyzed gated on CD4^+ (A1) and CD8^+ (OT-I) populations.
# Anti-CD3 proliferation and preactivation assays. […] For pre-activation studies, 2×10^4 Tregs were cultured with 1×10^5T-depleted spleen cells plus 0.1 ug/ml αCD3 antibody and 200 U/ml IL-2 (R&D Systems) for 48 hours.
# [6] = tested on: PDCs and allogeneic naive CD4+ T cells; assay: In vitro priming of naive CD4+ T cells by allogeneic PDCs: CD4+CD25+Foxp3+ Treg generation (flow cytometry); assay type: cell-based, human
# Excerpt: PDC, B, and T cell isolation. Human PBMC were isolated under IRE-approved protocols from apheresis products of healthy blood donors (Memorial Blood Centers of Minnesota, Minneapolis, Minn.) by Ficoll-Paque density gradient centrifugation. Plasmascytoid dendritic cells (PDCs) were isolated from PBMC using BDCA-4 cell isolation kits and the MACS system, followed by staining and sorting to collect purified Lin-CD11c-CD123+ PDCs, as reported previously (Moseman et al., J Immunol 2004; 173:4433-4442). […] cells were isolated from PBMC using CD4 T cell isolation kits followed by positive selection with CD45RA microbeads. […] B cells were isolated from PBMC with CD19 microbeads and the MACS system to greater than 98% purity of CD19+ B cells. All cell isolations kits and microbeads were from Miltenyi Biotec (Bergisch Gladbach, Germany). Reagents. Phosphorothioate-modified type-A CpG ODN 2216: […] NO:2), type-B CpG ODN 2006: […] NO:3) (sequences are shown 5'-3'; small letters represent phosphorothioate linkage; capital letters represent phosphodiester linkage 3' of the base; bold represents CpGdinucleotides) were from Integrated DNA Technologies (Coralville, Iowa), diluted in PBS, and used at a final concentration of 1 microgran per milliliter (μg/ml). […] Kynurenine (L-KYN, Sigma-Aldrich) was used at a final concentration of 50 μM. In vitro priming of naive CD4+ T cells. CD4+CD45RA+ naive T cells were primed with allogeneic PDCs or irradiated B cells (30 Gy) at a 10:1 ratio (e.g., 2×10^6 naive CD4+ T cells plus 2×105 PDCs per well in 24-well plates) with ODN 2216 or ODN 2006 present in RPMI 1640 medium supplemented with 10% human AB serum. 1 MT and/or KYN were added into CpG ODN-PDC or CpG ODN-B cell mediated naive CD4+ T cell priming cultures as indicated. […] After 7 days, primed T cells in cultures were harvested, assessed for their surface phenotype, intracellular Foxp3 expression, and their function in MLR assays. […] Mean fluorescence intensity (MFI) and positive cell percentages of stained cells were determined by flow cytometry.
# [7] = tested on: primed CD4+ T cells / naive CD4+ T cells; assay: MLR assays of function of CpG-PDC or CpG-B cell primed CD4+ T cells; assay type: cell-based, human; conditions: KYN added to priming MLRs containing 1MT
# Description: In vitro priming of naive CD4+ T cells. CD4+CD45RA+ naive T cells were primed with allogeneic PDCs or irradiated B cells (30 Gy) at a 10:1 ratio (e.g., 2×10^6 naive CD4+ T cells plus 2×105 PDCs per well in 24-well plates) with ODN 2216 or ODN 2006 present in RPMI 1640 medium supplemented with 10% human AB serum. 1 MT and/or KYN were added into CpG ODN-PDC or CpG ODN-B cell mediated naive CD4+ T cell priming cultures as indicated. In some experiments, blocking Abs against CD80, CD86, HLA-DR or the control IgG Ab (R&D Systems, Minneapolis, Minn.) were added to CpG-PDC-mediated naive CD4+ T cell priming cultures at a final Ab concentration ranging from 0.1 to 10 μg/ml. After 7 days, primed T cells in cultures were harvested, assessed for their surface phenotype, intracellular Foxp3 expression, and their function in MLR assays.
# MLR assays. […] In all T cell proliferation assays, plates were incubated at 37° C. for 5 days and pulsed with 1 μCi of 3H-thymidine per well for the last 18 hours before harvesting. All determinations were carried out in triplicate and 3H-thymidine incorporation was determined.
# [8] = tested on: PDCs; assay: Surface expression of CD80, CD86, HLA-DR on PDCs (flow cytometry); assay type: cell-based, human; conditions: CpG ODN stimulation 48 hours
# Excerpt: PDC, B, and T cell isolation. Human PBMC were isolated under IRE-approved protocols from apheresis products of healthy blood donors (Memorial Blood Centers of Minnesota, Minneapolis, Minn.) by Ficoll-Paque density gradient centrifugation. Plasmascytoid dendritic cells (PDCs) were isolated from PBMC using BDCA-4 cell isolation kits and the MACS system, followed by staining and sorting to collect purified Lin-CD11c-CD123+ PDCs, as reported previously (Moseman et al., J Immunol 2004; 173:4433-4442). CD4+CD45RA+ naïve T cells were isolated from PBMC using CD4 T cell isolation kits followed by positive selection with CD45RA microbeads. The purity of naïve CD4+ T cells was greater than 95% for CD4+CD45RA+ expression and less than 0.5% for CD25+ expression. B cells were isolated from PBMC with CD19 microbeads and the MACS system to greater than 98% purity of CD19+ B cells. All cell isolations kits and microbeads were from Miltenyi Biotec (Bergisch Gladbach, Germany).
# Flow Cytometry. Fluorescent antibodies (Abs) against human CD3, CD4, CD11c, CD19, CD25, CD40, CD45, CD45RA, CD45RO, CD80, CD86, CD123, HLA-DR, lineage (Lin) markers, and isotype control Abs were from BD Biosciences (San Diego, Calif.). […] Mean fluorescence intensity (MFI) and positive cell percentages of stained cells were determined by flow cytometry.
# [9] = tested on: IDO protein in PDCs; assay: Western blot for IDO protein in cultured PDCs; assay type: cell-based, human; conditions: 48 hours culture with CpG ODN
# Description: Western blots. Protein lysates were prepared from 2×10^5 fresh or cultured PDCs or B cells. Western blot was performed with antibody specific for IDO protein
# [10] = tested on: BM3 T cells; assay: Co-adoptive transfer of Tregs and BM3 T cells into CBK recipients; assay type: in vivo, mouse; conditions: 96 hours
# Description: Co-Adoptive Transfer. Purified (Mo-Flo sorted) CD4+CD25+ Tregs were prepared from spleens of CBK donor mice treated 24 hours previously with either 50 μg CpG or non-CpG. Tregs (1×10^6/recipient) were mixed with nylon-wool enriched BM3 responder T cells (5×10^6/recipient) and co-injected into CBK recipients (2-3 mice/group). Positive controls were CBK mice receiving BM3 T cells without Tregs; negative controls were CBA mice (lacking target antigen) receiving BM3 T cells. After 96 hours, mice were sacrificed and spleen cells stained with antibodies against CD8 (PerCP), CD25 (APC), H2K^b (PE) and biotinylated Ti98 (BM3 anti-clonotypic antibody, visualized with streptavidin APC (Tarazona et al. (1996) International Immunology 8:351-358). Except for Ti98, all antibodies were from Pharmingen (San Diego, Calif.).
# [11] = tested on: splenic Tregs; assay: Flow cytometry of CHOP and FoxP3 in splenic Tregs of treated mice; assay type: in vivo, mouse; conditions: wild-type mice
# Description: (§1) CpG Oligonucleotides. CpG-ODNs (CpG no. 1826, […]; (SEQ ID NO:4) and sequence matched non-CpG-B no. 2138, […] (SEQ ID NO:5)) with fully phosphorothioate backbones were purchased from Coley Pharmaceuticals. Mice were injected with relatively high doses of ODNs (50 μg/mouse, i/v) as described (Mellor et al. J Immunol 2005; 175:5601-5605).
# Analytical flow cytometry. Intracellular CHOP staining was performed as described (Munn et al. (2005) Immunity 22:1-10), using antibody sc-7351 (Santa Cruz Biotechnology, Santa Cruz, Calif.).
# [12] = tested on: BM3 T cells; assay: Ex vivo T cell suppression assays with sorted Tregs from treated mice; assay type: in vivo, mouse
# Description: as §1
# 1-methyl-[D]-tryptophan (1 mT). 1 mT (catalog number 45, 248-3, Sigma) was prepared as a 20 mM stock solution in 0.1 N NaOH, adjusted to pH 7.4, and stored at −20° C. protected from light. For in vitro use, 1 mT was added to MLRs to a final concentration of 100 μM. For in vivo treatment, slow-release polymer pellets (*5 mg/day) containing 1 mT or vehicle alone were inserted under the dorsal skin as described (Munn et al. Science 1998; 281:1191-1193) 24 hours before CpG treatment.
# Preparative flow cytometry to sort CD4+ T cells subsets. CD4+ T cell subsets were purified using a Mo-Flo cytometer as described (Mellor et al. J Immunol 2005; 175:5601-5605; Munn et al. Immunity 2005; 22:1-10).
# Ex vivo T cell suppression assays. Suppression assays were performed by adding sorted CD4+ cells to T cell proliferation assays (72 hour thymidine incorporation assays) containing responder H-2K^b-specific splenocytes from BM3 TCR transgenic mice (nylon-wool enriched) and CD11c+ splenocytes (AutoMacs enriched) from CBK (H-2K^b transgenic CBA) mice prepared as described (Mellor et al. J Immunol 2005; 175:5601-5605).
molecule,measurement,setting,value
"COc1ccc(C=CC(=O)Nc2ccccc2C(=O)O)cc1OC [3,4-DAA, N-(3,4,-Dimethoxycinnamoyl)anthranilic acid]",paralysis in experimental autoimmune encephalomyelitis,[1],reverse paralysis
same,inflammatory cytokine production by auto-reactive T cells,[2],inhibit inflammatory cytokine production
Nc1c(O)cccc1C(=O)O [3-hydroxyanthranilic acid],paralysis in experimental autoimmune encephalomyelitis,[1],reverse paralysis
same,inflammatory cytokine production by auto-reactive T cells,[2],inhibit inflammatory cytokine production
"Cn1cc(C[C@H](N)C(=O)O)c2ccccc21 [Inhibitor 1-MT, 1-methyl-tryptophan]",tumor outgrowth,[3],significantly delayed tumor outgrowth
same,IDO-mediated prevention of P815 rejection by pre-immunized hosts,[4],substantially reversed
"Nc1ccccc1C(=O)CC(N)C(=O)O (stereo not shown) [KYN, Kynurenine]",bystander suppression with excess kynurenine when IDO blocked with 1MT,[5]; 1MT+25 uM kynurenine,did not recapitulate suppression
same,CD4+CD25+Foxp3+ Treg generation in priming MLRs containing 1MT,"[6]; KYN 50 μM added with 1MT 250 μM, ODN 2216-PDC, day 7",restored CD4+CD25+Foxp3+ Treg generation
same,functional suppressor activity of PDC-primed T cells in MLR,[7],restored the generation of functional suppressor activity
same,hyporesponsiveness of primed T cells to alloantigen stimulation in MLR,[7],restored
N[C@@H](Cc1c[nH]c2ccccc12)C(=O)O [tryptophan],"IDO-induced bystander suppression, effect of added agent","[5]; not in transwells, thymidine incorporation/CFSE, tryptophan 10× (250 uM)",abrogated suppression
ODN 2216: Phosphorothioate-modified type-A CpG ODN gGGGACGATCGTCgggggG (SEQ ID NO:2) (DNA dG*dGdGdGdAdCdGdAdTdCdGdTdCdG*dG*dG*dG*dG*dG),frequency of PDC-induced CD4+CD25+Foxp3+ Tregs,"[6]; day 7 of cultures, CpG ODN 1 μg/ml, mean±SD, 5.7±3.1% without CpG ODN",21.6±5.2%
same,"cell surface expression of CD80, CD86, HLA-DR on PDCs",[8],upregulate cell surface expression
same,IDO expression of PDCs during culture,[9],sustained their IDO expression
non-CpG: sequence matched non-CpG ODN TCCATGAGCTTCCTGAGCTT (SEQ ID NO:5) (DNA dT*dC*dC*dA*dT*dG*dA*dG*dC*dT*dT*dC*dC*dT*dG*dA*dG*dC*dT*dT),spleen tissue pathology after co-transfer of Tregs from treated donor mice,[10],did not prevent extensive tissue pathology
same,clonal expansion of BM3 T cells in vivo after co-transfer of Tregs from treated donor mice,[10]; donors treated 24 hours with 50 μg,did not inhibit
same,number of CHOP+ Tregs over basal levels,[11],only slightly increased
same,suppressor functions of purified Tregs from IDO-KO mice,[12]; IDO-KO mice,no significant increase in suppressor functions
same,suppression of BM3 T cell proliferation by purified Tregs from treated mice,"[12]; mice treated 24 hours, 50 μg/mouse i/v, IDO-WT, 72 hour thymidine incorporation",did not suppress BM3 proliferation
